Results published in ChEMBL document CHEMBL4507310, “Data for DCP probe A-1211212” (2021).

Legend:
[1] = target: Beta-1 adrenergic receptor (Homo sapiens) (UniProt P08588); assay: Beta1 (h) Eurofins-Cerep binding assay; parameters: ligand concentration 0.3 nM; settings: filed as agonist, Compound concentration 10.0 uM
[2] = target: MAO-A (amine oxidase [flavin-containing] A) (Rattus norvegicus, UniProt P21396); assay: MAO-A Eurofins-Cerep binding assay; parameters: incubation time 60 min, incubation temperature 37°C, ligand concentration 10 nM; settings: rat cerebral cortex, probe [3H]Ro 41-1049 (10 nM), compound concentration 10 uM, read-out: % Inhibition of Control Specific Binding (Mean n=2)
[3] = target: Substance-P receptor (Homo sapiens) (UniProt P25103); assay: NK1 (h) Eurofins-Cerep binding assay; parameters: ligand concentration 0.05 nM; settings: filed as agonist, Compound concentration 10.0 uM
[4] = target: Mu-type opioid receptor (Homo sapiens) (UniProt P35372); assay: mu (MOP) (h) Eurofins-Cerep binding assay; parameters: ligand concentration 0.5 nM; settings: filed as agonist, Compound concentration 10.0 uM
[5] = target: 5-hydroxytryptamine receptor 7 (Homo sapiens) (UniProt P34969); assay: 5-HT7 (h) Eurofins-Cerep binding assay; parameters: ligand concentration 4 nM; settings: filed as agonist, Compound concentration 10.0 uM
Sequence of 5-hydroxytryptamine receptor 7 (Homo sapiens) (P34969 whole entry): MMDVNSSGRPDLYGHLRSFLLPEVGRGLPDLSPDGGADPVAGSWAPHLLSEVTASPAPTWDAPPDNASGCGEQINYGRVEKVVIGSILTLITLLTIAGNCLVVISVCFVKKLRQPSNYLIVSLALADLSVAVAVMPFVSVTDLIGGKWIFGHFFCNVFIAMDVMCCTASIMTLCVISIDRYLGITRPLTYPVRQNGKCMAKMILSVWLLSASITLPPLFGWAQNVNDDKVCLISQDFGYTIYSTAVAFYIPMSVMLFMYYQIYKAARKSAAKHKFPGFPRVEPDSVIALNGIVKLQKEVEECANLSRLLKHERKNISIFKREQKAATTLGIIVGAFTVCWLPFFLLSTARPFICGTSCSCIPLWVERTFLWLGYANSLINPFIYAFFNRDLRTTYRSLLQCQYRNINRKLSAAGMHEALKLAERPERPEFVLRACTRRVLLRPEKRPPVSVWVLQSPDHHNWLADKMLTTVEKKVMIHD

[6] = target: Glucocorticoid receptor (Homo sapiens) (UniProt P04150); assay: GR (h) Eurofins-Cerep binding assay; parameters: ligand concentration 1.5 nM; settings: filed as agonist, Compound concentration 10.0 uM
[7] = target: Sulfonylurea receptors; K-ATP channels (Rattus norvegicus) (UniProt Q63563+P70673+Q63664+Q09429); assay: KATP channel Eurofins-Cerep binding assay; type: protein-complex assay; parameters: ligand concentration 0.1 nM; settings: filed as antagonist, Compound concentration 10.0 uM
[8] = target: Sodium-dependent serotonin transporter (Homo sapiens) (UniProt P31645); assay: 5-HT transporter (h) Eurofins-Cerep binding assay; parameters: ligand concentration 2 nM; settings: filed as antagonist, Compound concentration 10.0 uM
Sequence of Sodium-dependent serotonin transporter (Homo sapiens) (P31645 whole entry, looked up): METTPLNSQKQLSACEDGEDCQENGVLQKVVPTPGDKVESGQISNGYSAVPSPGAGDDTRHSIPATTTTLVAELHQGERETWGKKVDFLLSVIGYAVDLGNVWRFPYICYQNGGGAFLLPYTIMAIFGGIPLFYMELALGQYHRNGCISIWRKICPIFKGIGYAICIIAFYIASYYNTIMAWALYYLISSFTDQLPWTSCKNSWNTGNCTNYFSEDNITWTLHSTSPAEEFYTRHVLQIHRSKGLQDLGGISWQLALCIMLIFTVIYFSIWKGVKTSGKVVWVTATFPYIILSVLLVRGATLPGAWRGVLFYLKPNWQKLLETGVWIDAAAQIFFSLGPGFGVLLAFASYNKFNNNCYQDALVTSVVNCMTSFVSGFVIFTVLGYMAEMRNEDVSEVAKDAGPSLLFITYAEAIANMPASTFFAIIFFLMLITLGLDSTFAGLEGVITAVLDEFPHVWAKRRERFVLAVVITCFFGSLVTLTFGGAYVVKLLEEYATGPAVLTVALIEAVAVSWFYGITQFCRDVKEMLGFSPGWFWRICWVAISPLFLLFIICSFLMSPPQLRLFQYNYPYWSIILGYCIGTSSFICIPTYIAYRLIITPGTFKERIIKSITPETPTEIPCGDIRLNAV

[9] = target: 5'-AMP-activated protein kinase catalytic subunit alpha-1 (Homo sapiens) (UniProt Q13131); settings: Compound concentration 1000.0 nM
[10] = target: Mitotic checkpoint serine/threonine-protein kinase BUB1 (Homo sapiens) (UniProt O43683); settings: Compound concentration 1000.0 nM
[11] = target: Calcium/calmodulin-dependent protein kinase type II subunit alpha (Homo sapiens) (UniProt Q9UQM7); settings: Compound concentration 1000.0 nM
[12] = target: Dual specificity protein kinase CLK3 (Homo sapiens) (UniProt P49761); settings: Compound concentration 1000.0 nM
[13] = target: Serine/threonine-protein kinase MRCK gamma (Homo sapiens) (UniProt Q6DT37); settings: Compound concentration 1000.0 nM
[14] = target: Dual specificity tyrosine-phosphorylation-regulated kinase 1B (Homo sapiens) (UniProt Q9Y463); settings: Compound concentration 1000.0 nM
[15] = target: Ephrin type-A receptor 3 (Homo sapiens) (UniProt P29320); settings: Compound concentration 1000.0 nM
[16] = target: Mitogen-activated protein kinase 4 (Homo sapiens) (UniProt P31152); settings: Compound concentration 1000.0 nM
Sequence of Mitogen-activated protein kinase 4 (Homo sapiens) (P31152 whole entry): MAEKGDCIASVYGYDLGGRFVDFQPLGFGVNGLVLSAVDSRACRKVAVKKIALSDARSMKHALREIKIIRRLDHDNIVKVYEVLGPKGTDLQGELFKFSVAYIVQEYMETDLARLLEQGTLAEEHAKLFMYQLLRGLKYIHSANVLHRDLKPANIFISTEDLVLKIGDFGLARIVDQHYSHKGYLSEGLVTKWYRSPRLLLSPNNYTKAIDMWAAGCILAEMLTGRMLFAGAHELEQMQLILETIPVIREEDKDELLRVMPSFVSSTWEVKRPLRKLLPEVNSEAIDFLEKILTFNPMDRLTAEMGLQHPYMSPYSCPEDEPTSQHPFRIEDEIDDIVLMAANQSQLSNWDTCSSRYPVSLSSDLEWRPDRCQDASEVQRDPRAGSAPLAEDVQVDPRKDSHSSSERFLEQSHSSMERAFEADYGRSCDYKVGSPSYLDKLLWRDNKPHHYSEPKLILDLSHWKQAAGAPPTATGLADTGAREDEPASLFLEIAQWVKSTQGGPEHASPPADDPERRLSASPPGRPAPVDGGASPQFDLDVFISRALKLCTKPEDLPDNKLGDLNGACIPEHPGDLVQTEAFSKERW

[17] = test system: Receptor-type tyrosine-protein kinase FLT3 (Homo sapiens), P36888 [D835V]; settings: Compound concentration 1000.0 nM
[18] = target: Tyrosine-protein kinase HCK (Homo sapiens) (UniProt P08631); settings: Compound concentration 1000.0 nM
[19] = target: Insulin receptor (Homo sapiens) (UniProt P06213); settings: Compound concentration 1000.0 nM
[20] = target: Tyrosine-protein kinase JAK3 (Homo sapiens) (UniProt P52333); settings: Compound concentration 1000.0 nM
[21] = test system: Mast/stem cell growth factor receptor Kit (Homo sapiens), P10721 [A829P]; settings: Compound concentration 1000.0 nM
[22] = target: Mitogen-activated protein kinase kinase kinase 1 (Homo sapiens) (UniProt Q13233); settings: Compound concentration 1000.0 nM
[23] = target: Mitogen-activated protein kinase kinase kinase 15 (Homo sapiens) (UniProt Q6ZN16); settings: Compound concentration 1000.0 nM
[24] = target: Microtubule-associated serine/threonine-protein kinase 1 (Homo sapiens) (UniProt Q9Y2H9); settings: Compound concentration 1000.0 nM
[25] = target: Tyrosine-protein kinase Mer (Homo sapiens) (UniProt Q12866); settings: Compound concentration 1000.0 nM
[26] = target: MAP kinase-interacting serine/threonine-protein kinase 1 (Homo sapiens) (UniProt Q9BUB5); settings: Compound concentration 1000.0 nM
Sequence of MAP kinase-interacting serine/threonine-protein kinase 1 (Homo sapiens) (Q9BUB5 whole entry, looked up): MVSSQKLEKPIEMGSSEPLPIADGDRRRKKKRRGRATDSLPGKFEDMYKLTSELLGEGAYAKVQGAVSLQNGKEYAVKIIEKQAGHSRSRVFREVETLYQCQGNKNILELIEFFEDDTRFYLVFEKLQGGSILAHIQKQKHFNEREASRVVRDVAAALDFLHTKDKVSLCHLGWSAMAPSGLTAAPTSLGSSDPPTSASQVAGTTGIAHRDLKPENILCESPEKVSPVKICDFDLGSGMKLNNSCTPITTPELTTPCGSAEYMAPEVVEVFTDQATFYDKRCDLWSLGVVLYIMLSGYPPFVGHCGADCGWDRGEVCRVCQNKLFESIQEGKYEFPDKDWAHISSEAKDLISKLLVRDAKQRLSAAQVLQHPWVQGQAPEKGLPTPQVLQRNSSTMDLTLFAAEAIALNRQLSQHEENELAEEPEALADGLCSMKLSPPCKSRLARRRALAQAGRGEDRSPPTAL

[27] = target: Serine/threonine-protein kinase N1 (Homo sapiens) (UniProt Q16512); settings: Compound concentration 1000.0 nM
[28] = target: Rho-associated protein kinase 1 (Homo sapiens) (UniProt Q13464); settings: Compound concentration 1000.0 nM
[29] = target: Rho-associated protein kinase 2 (Homo sapiens) (UniProt O75116); settings: Compound concentration 1000.0 nM
Sequence of Rho-associated protein kinase 2 (Homo sapiens) (O75116 whole entry, looked up): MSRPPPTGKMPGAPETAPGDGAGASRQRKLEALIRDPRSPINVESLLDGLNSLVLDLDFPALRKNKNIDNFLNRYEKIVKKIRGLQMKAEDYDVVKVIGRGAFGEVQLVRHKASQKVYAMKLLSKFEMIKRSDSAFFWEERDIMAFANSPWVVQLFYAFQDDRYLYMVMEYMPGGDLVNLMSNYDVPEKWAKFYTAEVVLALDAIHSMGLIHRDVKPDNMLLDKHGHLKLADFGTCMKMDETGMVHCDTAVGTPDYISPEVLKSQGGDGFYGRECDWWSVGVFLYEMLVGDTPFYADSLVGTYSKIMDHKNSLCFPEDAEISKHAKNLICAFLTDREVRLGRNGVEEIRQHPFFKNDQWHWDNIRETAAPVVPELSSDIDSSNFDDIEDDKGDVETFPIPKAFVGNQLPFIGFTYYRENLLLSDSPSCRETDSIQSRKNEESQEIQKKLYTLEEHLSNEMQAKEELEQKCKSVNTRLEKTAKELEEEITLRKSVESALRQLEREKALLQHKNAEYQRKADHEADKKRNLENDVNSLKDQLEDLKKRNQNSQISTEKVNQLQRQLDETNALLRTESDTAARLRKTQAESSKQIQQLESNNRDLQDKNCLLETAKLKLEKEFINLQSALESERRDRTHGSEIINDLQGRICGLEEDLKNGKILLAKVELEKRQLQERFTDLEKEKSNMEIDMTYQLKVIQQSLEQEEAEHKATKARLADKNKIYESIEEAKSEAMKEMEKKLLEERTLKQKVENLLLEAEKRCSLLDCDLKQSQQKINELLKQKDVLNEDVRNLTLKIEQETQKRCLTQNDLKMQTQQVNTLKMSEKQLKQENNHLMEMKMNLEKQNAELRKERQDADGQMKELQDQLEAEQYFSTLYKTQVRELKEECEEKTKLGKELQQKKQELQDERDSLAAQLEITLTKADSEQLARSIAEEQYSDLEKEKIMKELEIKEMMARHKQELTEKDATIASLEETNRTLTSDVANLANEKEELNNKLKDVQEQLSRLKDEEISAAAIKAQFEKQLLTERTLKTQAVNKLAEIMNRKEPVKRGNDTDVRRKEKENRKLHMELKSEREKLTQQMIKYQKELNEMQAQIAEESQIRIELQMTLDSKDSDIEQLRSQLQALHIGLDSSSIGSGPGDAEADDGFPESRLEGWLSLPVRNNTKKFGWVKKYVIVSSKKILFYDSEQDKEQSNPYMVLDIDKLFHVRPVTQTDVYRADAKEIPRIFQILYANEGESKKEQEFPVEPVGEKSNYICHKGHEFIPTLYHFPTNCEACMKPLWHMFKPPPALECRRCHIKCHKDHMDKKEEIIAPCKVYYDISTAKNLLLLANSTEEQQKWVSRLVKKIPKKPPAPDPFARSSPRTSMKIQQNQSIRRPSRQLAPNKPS

[30] = target: Serine/threonine-protein kinase 33 (Homo sapiens) (UniProt Q9BYT3); settings: Compound concentration 1000.0 nM
[31] = target: Tyrosine-protein kinase receptor Tie-1 (Homo sapiens) (UniProt P35590); settings: Compound concentration 1000.0 nM
[32] = target: Testis-specific serine/threonine-protein kinase 1 (Homo sapiens) (UniProt Q9BXA7); settings: Compound concentration 1000.0 nM
[33] = target: Serine/threonine-protein kinase ULK1 (Homo sapiens) (UniProt O75385); settings: Compound concentration 1000.0 nM
Sequence of Serine/threonine-protein kinase ULK1 (Homo sapiens) (O75385 whole entry): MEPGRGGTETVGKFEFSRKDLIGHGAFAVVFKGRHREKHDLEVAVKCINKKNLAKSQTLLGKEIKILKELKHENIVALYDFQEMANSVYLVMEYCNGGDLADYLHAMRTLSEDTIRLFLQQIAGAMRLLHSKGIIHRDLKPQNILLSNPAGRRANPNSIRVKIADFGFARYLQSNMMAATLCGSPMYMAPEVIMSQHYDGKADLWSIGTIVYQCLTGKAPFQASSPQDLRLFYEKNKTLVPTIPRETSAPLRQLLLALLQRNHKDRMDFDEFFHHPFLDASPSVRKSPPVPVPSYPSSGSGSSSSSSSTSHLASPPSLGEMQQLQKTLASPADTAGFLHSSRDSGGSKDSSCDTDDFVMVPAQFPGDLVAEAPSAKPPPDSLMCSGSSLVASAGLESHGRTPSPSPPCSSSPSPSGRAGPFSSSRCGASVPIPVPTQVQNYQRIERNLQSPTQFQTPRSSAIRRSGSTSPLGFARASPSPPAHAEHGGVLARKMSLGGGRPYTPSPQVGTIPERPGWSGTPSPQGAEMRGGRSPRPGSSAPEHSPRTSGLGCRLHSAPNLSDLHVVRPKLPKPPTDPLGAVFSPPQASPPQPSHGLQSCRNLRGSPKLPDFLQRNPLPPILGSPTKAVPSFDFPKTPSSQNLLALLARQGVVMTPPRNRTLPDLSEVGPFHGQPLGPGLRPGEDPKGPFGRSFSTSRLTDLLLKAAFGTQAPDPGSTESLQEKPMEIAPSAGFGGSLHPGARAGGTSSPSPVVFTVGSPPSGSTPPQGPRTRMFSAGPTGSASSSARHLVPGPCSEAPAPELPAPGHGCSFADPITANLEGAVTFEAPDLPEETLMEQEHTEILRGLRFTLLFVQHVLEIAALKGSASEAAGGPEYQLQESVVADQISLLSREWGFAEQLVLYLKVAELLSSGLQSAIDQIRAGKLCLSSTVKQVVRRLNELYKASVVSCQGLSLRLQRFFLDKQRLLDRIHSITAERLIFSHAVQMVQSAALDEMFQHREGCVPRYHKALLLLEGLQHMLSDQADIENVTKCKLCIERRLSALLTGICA

[34] = target: T1, 5-hydroxytryptamine receptor 2C (Homo sapiens) (UniProt P28335); settings: Compound concentration 10.0 uM
T1 sequence (whole entry): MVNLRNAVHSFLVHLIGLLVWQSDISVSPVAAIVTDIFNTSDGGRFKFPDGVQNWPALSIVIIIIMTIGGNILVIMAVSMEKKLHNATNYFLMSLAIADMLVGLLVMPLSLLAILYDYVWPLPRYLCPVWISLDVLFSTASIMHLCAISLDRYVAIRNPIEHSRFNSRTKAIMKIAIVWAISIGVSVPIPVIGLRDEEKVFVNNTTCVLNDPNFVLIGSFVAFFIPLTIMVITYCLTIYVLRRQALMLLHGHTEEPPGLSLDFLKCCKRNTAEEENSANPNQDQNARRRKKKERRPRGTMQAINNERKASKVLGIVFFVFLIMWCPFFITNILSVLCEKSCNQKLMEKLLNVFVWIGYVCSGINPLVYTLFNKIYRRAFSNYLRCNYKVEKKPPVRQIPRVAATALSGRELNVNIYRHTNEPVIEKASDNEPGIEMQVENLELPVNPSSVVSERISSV

[35] = target: D(1A) dopamine receptor (Homo sapiens) (UniProt P21728); settings: Compound concentration 10.0 uM
[36] = target: Histamine H3 receptor (Homo sapiens) (UniProt Q9Y5N1); settings: Compound concentration 10.0 uM
[37] = target: Histamine H4 receptor (Homo sapiens) (UniProt Q9H3N8); settings: Compound concentration 10.0 uM
Rattus norvegicus = species: Rattus norvegicus; settings: Compound concentration 10.0 uM

Sequence of Beta-1 adrenergic receptor (Homo sapiens) (P08588 whole entry, looked up): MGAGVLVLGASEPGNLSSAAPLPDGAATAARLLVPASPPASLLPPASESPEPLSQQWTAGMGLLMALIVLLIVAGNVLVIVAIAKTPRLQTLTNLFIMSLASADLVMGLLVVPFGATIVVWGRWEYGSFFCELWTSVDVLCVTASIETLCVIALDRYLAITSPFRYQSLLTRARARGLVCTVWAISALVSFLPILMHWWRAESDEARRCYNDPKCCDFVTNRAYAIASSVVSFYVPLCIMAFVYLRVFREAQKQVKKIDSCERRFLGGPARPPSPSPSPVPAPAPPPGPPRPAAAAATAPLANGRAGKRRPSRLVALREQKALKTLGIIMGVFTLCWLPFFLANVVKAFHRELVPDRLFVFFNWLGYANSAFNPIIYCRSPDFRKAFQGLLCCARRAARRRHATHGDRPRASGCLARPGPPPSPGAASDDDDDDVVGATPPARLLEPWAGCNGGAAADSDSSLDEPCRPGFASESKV

Compound | % Inhibition of Control Specific Binding (Mean n=2) [1] | inhibition at 60 min, 10 µM [2] | % Inhibition of Control Specific Binding (Mean n=2) [3] | % Inhibition of Control Specific Binding (Mean n=2) [4] | % Inhibition of Control Specific Binding (Mean n=2) [5] | % Inhibition of Control Specific Binding (Mean n=2) [6] | % Inhibition of Control Specific Binding (Mean n=2) [7] | % Inhibition of Control Specific Binding (Mean n=2) [8] | residual activity [9] | residual activity [10] | residual activity [11] | residual activity [12] | residual activity [13] | residual activity [14] | residual activity [15] | residual activity [16] | residual activity [17] | residual activity [18] | residual activity [19] | residual activity [20] | other results
O=C(NS(=O)(=O)c1ccc(NCC2CCOCC2)c([N+](=O)[O-])c1)c1ccc(N2CCN(Cc3ccc(C(F)(F)F)cc3-c3ccc(Cl)cc3)CC2)cc1Oc1cnc2[nH]ccc2c1 [A-1210227] | -8.2% | 8.7% | -284% | 2.8% | 10.2% | -9.4% | 9.9% | 0.4% | 84% | 100% | 87% | 100% | 100% | 80% | 100% | 97% | 100% | 99% | 89% | 85% | residual activity [21]: 99%; residual activity [22]: 100%; residual activity [23]: 84%; residual activity [24]: 100%; residual activity [25]: 100%; residual activity [26]: 99%; residual activity [27]: 100%; residual activity [28]: 100%; residual activity [29]: 100%; residual activity [30]: 100%; residual activity [31]: 100%; residual activity [32]: 100%; residual activity [33]: 96%; inhibition [34]: -0.17%; inhibition [35]: 34.2%; inhibition [36]: -1.15%; inhibition [37]: -2.4%; inhibition (Rattus norvegicus): 11.6%
CO[C@H]1CC[C@H](CNc2ccc(S(=O)(=O)NC(=O)c3ccc(N4CCN(CC5=C(c6ccc(Cl)cc6)CC(C)(C)CC5)CC4)cc3Oc3cnc4[nH]ccc4c3)cc2[N+](=O)[O-])CC1 [A-1211212] | -10.9% | -5.9% | -60.6% | 12.9% | 11.4% | 4.6% | 9.7% | -2.2% | 73% | 73% | 68% | 90% | 75% | 71% | 90% | 100% | 100% | 71% | 91% | 84% | residual activity [21]: 100%; residual activity [22]: 100%; residual activity [23]: 100%; residual activity [24]: 96%; residual activity [25]: 85%; residual activity [26]: 90%; residual activity [27]: 83%; residual activity [28]: 70%; residual activity [29]: 100%; residual activity [30]: 100%; residual activity [31]: 100%; residual activity [32]: 67%; residual activity [33]: 82%; inhibition [34]: -4.69%; inhibition [35]: 28.2%; inhibition [36]: 4.97%; inhibition [37]: 4.94%; inhibition (Rattus norvegicus): 41.5%
